Drawing on patent US12297194B2, “N2-phenylpyrimidine-2,4-diamine compounds, and preparation methods and methods of use thereof” (BRIDGE BIOTHERAPEUTICS, INC., priority 2021, dated 2025), this text covers GI50 for 15 compounds.

The structures appear in SMILES notation.

Format in all cases: cell-based, murine
In one assay the target is Ba/F3 EGFR Wild-type (Homo sapiens, UniProt P00533). In words: CellTiter-Glo cell viability, Ba/F3 EGFR wild-type cells. Conditions: 72 hours, read-out: Ba/F3 EGFR mutant cell (IC50, nM) WT. In short, it runs like this:
(§1)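 Luminescent ATP read-out (CellTiter-Glo) after 72 h compound exposure, 0–2000 nM dilution series. Cells plated 2500/well, dosed 24 h post-seeding. IC50 from luminescence curves.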
Background: In ATP-based viability assays light output follows the ATP content of the culture.

The target in assay [1] is Ba/F3 EGFR Del19/T790M mutants (Homo sapiens, UniProt P00533, T790M, cells depend on it, form not given). In words: CellTiter-Glo cell viability, Ba/F3 EGFR Del19/T790M cells. Conditions: 72 hours, read-out: Ba/F3 EGFR mutant cell (IC50, nM) D/T. In short, it runs like this: as §1
Ba/F3 EGFR Del19/T790M mutants, sequence (P00533 with tags, fused parts or gaps DEL746-750/T790M, form open): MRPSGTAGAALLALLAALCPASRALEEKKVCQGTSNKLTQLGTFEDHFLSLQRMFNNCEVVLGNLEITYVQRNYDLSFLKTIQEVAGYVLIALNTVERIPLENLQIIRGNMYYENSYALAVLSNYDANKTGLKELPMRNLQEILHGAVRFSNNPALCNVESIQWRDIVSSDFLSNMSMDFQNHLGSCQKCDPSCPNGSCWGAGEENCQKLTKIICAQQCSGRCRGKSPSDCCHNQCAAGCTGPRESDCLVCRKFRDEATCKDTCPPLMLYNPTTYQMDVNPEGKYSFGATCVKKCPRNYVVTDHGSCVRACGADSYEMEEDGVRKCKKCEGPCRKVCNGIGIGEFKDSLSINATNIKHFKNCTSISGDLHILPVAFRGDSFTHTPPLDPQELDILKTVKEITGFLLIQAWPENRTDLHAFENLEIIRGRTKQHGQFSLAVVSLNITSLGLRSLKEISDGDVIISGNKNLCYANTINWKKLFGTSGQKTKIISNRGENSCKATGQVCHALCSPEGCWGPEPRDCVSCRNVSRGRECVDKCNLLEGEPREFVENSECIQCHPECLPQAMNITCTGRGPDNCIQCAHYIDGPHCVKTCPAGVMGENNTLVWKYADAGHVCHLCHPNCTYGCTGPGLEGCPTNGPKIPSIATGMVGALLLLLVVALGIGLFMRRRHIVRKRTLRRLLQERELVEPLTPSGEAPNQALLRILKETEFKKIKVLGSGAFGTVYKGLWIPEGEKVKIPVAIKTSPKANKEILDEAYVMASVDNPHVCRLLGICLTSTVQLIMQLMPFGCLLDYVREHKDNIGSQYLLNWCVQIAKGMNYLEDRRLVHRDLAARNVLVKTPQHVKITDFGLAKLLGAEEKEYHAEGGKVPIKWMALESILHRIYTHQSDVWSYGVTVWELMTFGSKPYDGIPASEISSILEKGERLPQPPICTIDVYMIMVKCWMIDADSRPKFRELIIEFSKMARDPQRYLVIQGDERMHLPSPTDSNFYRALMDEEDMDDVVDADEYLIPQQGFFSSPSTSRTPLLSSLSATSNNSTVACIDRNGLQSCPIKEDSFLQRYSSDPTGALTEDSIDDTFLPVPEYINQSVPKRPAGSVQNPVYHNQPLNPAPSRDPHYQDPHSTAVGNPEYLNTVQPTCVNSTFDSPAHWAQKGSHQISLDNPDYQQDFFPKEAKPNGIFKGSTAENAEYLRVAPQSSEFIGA
In assay [2] the target is Ba/F3 EGFR Del19/T790M/C797S mutants (Homo sapiens, UniProt P00533, T790M/C797S, cells depend on it, form not given). In words: CellTiter-Glo cell viability, Ba/F3 EGFR Del19/T790M/C797S cells. The settings on record: 72 hours, read-out: Ba/F3 EGFR mutant cell (IC50, nM) D/T/C. In short, it runs like this:
as §1

In assay [3] the target is Ba/F3 EGFR L858R/T790M/C797S mutants (Homo sapiens, UniProt P00533, T790M/C797S/L858R, cells depend on it). Description: CellTiter-Glo cell viability, Ba/F3 EGFR L858R/T790M/C797S cells. The settings on record: 72 hours, read-out: Ba/F3 EGFR mutant cell (IC50, nM) L/T/C. The procedure, abridged:
as §1

Assay [4] concerns the target Ba/F3 EGFR L858R/C797S mutants (Homo sapiens, UniProt P00533, C797S/L858R, cells depend on it). Description: CellTiter-Glo cell viability, Ba/F3 EGFR L858R/C797S cells. Conditions: 72 hours, read-out: Ba/F3 EGFR mutant cell (IC50, nM) L/C. The procedure, abridged:
as §1

Assay [5] deals with Ba/F3 EGFR Del19/C797S mutants (Homo sapiens, UniProt P00533, C797S, cells depend on it, form not given). In words: CellTiter-Glo cell viability, Ba/F3 EGFR Del19/C797S cells. Conditions: 72 hours, read-out: Ba/F3 EGFR mutant cell (IC50, nM) D/C. In short, it runs like this:
as §1

Ba/F3 EGFR Del19/T790M/C797S mutants, sequence (P00533 with tags, fused parts or gaps DEL746-750/T790M/C797S, form open): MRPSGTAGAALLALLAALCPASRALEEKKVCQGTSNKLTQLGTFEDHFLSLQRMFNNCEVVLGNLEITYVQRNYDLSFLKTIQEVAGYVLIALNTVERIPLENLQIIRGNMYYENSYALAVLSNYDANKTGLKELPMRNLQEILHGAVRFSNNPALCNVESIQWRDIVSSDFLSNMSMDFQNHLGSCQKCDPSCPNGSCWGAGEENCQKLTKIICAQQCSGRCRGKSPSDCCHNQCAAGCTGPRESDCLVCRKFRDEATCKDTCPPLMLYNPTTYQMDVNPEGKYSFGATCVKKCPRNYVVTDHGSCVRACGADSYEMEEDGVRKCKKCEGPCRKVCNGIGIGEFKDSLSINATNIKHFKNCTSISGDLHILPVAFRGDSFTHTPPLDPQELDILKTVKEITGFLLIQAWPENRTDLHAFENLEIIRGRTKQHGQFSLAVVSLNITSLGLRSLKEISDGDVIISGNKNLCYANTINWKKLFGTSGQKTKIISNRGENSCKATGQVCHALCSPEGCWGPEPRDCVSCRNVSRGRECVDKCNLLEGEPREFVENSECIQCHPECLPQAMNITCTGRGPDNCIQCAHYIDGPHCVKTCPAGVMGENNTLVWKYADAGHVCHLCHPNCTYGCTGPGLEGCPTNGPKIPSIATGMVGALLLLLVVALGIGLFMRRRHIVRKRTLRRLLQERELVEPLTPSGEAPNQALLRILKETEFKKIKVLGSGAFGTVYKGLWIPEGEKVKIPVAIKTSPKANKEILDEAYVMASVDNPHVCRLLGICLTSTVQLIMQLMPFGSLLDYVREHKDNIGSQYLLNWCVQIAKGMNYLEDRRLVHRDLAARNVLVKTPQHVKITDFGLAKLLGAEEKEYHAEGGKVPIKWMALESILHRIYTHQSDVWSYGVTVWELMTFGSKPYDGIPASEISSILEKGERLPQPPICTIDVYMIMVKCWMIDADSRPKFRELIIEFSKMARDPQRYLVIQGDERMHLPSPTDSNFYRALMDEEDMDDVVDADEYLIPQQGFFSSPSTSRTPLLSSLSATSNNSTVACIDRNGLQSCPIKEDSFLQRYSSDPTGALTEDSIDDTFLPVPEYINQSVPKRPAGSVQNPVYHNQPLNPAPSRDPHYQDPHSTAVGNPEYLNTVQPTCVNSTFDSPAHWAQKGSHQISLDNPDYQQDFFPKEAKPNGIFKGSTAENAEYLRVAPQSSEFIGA
Ba/F3 EGFR L858R/C797S mutants, sequence (P00533 whole entry C797S/L858R): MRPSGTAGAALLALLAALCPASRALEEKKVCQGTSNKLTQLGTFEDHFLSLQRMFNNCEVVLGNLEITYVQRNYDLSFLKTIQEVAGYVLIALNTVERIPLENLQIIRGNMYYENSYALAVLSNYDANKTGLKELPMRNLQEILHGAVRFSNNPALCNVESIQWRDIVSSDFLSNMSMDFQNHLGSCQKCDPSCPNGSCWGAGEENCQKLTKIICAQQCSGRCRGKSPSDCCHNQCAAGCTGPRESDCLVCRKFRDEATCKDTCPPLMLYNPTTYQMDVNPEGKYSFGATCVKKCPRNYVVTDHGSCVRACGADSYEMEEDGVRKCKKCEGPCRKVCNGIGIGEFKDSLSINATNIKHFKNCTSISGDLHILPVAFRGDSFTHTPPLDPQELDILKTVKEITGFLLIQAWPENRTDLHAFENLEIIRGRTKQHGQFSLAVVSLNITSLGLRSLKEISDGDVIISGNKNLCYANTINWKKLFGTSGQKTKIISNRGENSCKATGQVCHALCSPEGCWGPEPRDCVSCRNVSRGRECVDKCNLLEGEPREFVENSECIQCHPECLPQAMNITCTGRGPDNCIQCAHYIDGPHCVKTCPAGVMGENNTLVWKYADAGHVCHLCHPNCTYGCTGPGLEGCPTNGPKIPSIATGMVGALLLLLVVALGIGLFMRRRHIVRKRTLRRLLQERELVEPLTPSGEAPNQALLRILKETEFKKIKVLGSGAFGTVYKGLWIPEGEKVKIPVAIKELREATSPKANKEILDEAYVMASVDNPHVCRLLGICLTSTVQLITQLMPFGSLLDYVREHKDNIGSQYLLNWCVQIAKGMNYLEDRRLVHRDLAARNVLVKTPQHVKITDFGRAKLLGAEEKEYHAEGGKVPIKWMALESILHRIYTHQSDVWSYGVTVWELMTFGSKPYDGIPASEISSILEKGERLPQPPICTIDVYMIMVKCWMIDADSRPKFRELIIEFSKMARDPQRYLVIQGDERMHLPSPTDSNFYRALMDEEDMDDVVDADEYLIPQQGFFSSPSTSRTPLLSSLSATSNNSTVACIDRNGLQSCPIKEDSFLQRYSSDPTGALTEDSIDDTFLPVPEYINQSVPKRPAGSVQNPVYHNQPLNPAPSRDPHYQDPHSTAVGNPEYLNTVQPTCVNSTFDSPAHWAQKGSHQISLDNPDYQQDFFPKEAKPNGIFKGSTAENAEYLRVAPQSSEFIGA
Ba/F3 EGFR Wild-type, sequence (P00533 whole entry, change not shown): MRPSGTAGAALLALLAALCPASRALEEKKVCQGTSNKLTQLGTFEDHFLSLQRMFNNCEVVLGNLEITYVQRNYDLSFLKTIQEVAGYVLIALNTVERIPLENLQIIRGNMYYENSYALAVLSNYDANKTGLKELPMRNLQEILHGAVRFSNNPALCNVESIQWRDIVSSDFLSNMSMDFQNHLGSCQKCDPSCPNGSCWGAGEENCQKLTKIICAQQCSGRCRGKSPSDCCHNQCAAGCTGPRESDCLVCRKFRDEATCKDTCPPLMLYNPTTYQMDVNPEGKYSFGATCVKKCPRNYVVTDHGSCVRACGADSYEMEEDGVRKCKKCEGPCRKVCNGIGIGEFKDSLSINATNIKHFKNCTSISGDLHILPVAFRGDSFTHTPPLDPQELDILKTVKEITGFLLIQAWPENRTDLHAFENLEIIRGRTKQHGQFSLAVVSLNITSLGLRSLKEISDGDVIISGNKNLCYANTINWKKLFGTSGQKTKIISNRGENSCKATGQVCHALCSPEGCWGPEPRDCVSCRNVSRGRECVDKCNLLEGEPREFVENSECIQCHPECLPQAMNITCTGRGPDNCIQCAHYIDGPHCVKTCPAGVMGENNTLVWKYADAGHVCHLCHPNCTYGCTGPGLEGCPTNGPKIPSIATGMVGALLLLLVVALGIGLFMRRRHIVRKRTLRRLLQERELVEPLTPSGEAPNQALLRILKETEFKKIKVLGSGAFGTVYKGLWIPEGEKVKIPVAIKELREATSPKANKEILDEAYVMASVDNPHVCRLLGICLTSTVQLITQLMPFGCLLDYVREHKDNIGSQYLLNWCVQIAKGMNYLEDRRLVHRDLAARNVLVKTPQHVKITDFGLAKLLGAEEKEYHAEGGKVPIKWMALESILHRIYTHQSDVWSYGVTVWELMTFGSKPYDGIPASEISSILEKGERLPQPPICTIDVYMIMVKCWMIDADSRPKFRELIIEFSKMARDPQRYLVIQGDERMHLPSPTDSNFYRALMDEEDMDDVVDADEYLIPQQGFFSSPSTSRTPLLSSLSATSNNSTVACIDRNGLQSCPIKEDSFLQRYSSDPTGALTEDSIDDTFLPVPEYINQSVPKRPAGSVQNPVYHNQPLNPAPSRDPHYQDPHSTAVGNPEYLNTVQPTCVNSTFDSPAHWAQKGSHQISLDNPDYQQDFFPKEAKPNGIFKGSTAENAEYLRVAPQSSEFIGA

In the case of `COc1cc(N2CCC(N3CCN(C)C4(CC4)C3)CC2)ccc1Nc1ncc(Cl)c(Nc2ccc3nccnc3c2NS(C)(=O)=O)n1` [Example A15, N-(6-((5-chloro-2-((2-methoxy-4-(4-(4-methyl-4,7-diazaspiro[2.5]octan-7-yl)piperidin-1-yl)phenyl)amino)pyrimidin-4-yl)amino)quinoxalin-5-yl)methanesulfonamide], the GI50 at Ba/F3 EGFR Wild-type came out at 811 nM; in assay [1] it was 156 nM; in assay [2], 211 nM; in assay [3], 473 nM; in assay [4], 423 nM; in assay [5], 295 nM.
`CCc1cc(Nc2ncc(Cl)c(Nc3ccc4nccnc4c3NS(C)(=O)=O)n2)c(OC)cc1N1CC2(C1)CN(C(C)C)C2` [Example B26, N-(6-((5-chloro-2-((5-ethyl-4-(6-isopropyl-2,6-diazaspiro[3.3]heptan-2-yl)-2-methoxyphenyl)amino)pyrimidin-4-yl)amino)quinoxalin-5-yl)methanesulfonamide]: the GI50 is 528 nM on Ba/F3 EGFR Wild-type; 38 nM in assay [1]; 9 nM in assay [2]; 61 nM in assay [3]; 59 nM in assay [4]; 42 nM in assay [5].
`COc1cc(N2CCC(N3CCN(C)CC3)CC2)ccc1Nc1ncc(Cl)c(Nc2ccc3c(c2NS(C)(=O)=O)OCCO3)n1` [Example C9, N-(6-((5-chloro-2-((2-methoxy-4-(4-(4-methylpiperazin-1-yl)piperidin-1-yl)phenyl)amino)pyrimidin-4-yl)amino)-2,3-dihydrobenzo[b][1,4]dioxin-5-yl)methanesulfonamide]: the GI50 was 755 nM on Ba/F3 EGFR Wild-type; 152 nM in assay [1]; 260 nM in assay [2]; 356 nM in assay [3]; 345 nM in assay [4]; 281 nM in assay [5].
As for `CCc1cc(Nc2ncc(Cl)c(Nc3ccc4nccnc4c3N(C)S(C)(=O)=O)n2)c(OC)cc1N1CC2CCC1CN2C(C)C` (stereo not drawn) [Example B28, N—N-(6-((5-chloro-2-((5-ethyl-4-(5-isopropyl-2,5-diazabicyclo[2.2.2]octan-2-yl)-2-methoxyphenyl)amino)pyrimidin-4-yl)amino)quinoxalin-5-yl)-N-methylmethanesulfonamide], the GI50 on Ba/F3 EGFR Wild-type was 332 nM; in assay [1], 23 nM; in assay [2], 5 nM; in assay [3], 50 nM; in assay [4], 26 nM; in assay [5], 14 nM.
`COc1cc(N2CCC(N3CCN(C)CC3)CC2)c(C)cc1Nc1ncc(C)c(Nc2ccc3nccnc3c2NS(C)(=O)=O)n1` [Example A21, N-(6-((2-((2-methoxy-5-methyl-4-(4-(4-methylpiperazin-1-yl)piperidin-1-yl)phenyl)amino)-5-methylpyrimidin-4-yl)amino)quinoxalin-5-yl)methane sulfonamide]: the GI50 on Ba/F3 EGFR Wild-type came to 460 nM; in assay [1], 24 nM; in assay [2] it was 58 nM; in assay [3], 103 nM; in assay [4], 52 nM; in assay [5] it was 23 nM.
Turning to `CCc1cc(Nc2ncc(Cl)c(Nc3ccc4nccnc4c3NS(C)(=O)=O)n2)c(OC)cc1N1CCC(N2CCN(C)CC2)CC1` [Example A2, N-(6-((5-chloro-2-((5-ethyl-2-methoxy-4-(4-(4-methylpiperazin-1-yl)piperidin-1-yl)phenyl)amino)pyrimidin-4-yl)amino)quinoxalin-5-yl)methanesulfonamide], the GI50 at Ba/F3 EGFR Wild-type was 381 nM; in assay [1], 4 nM; in assay [2], 4 nM; in assay [3], 9 nM; in assay [4] it was 26 nM; in assay [5] it was 12 nM.
For the compound `COc1cc(C2CCN(C(C)=O)CC2)ccc1Nc1ncc(Cl)c(Nc2ccc3nccnc3c2NS(C)(=O)=O)n1` [Example B8, N-(6-((2-((4-(1-acetylpiperidin-4-yl)-2-methoxyphenyl)amino)-5-chloropyrimidin-4-yl)amino)quinoxalin-5-yl)methanesulfonamide], the GI50 is 729 nM on Ba/F3 EGFR Wild-type; 424 nM in assay [1]; 292 nM in assay [2]; 861 nM in assay [3]; 554 nM in assay [4]; 320 nM in assay [5].
Consider `COc1ccc(Nc2nc(Nc3cc(C)c(N4CCC(N(C)C)CC4)cc3OC)ncc2Cl)c(NS(C)(=O)=O)c1` [Example C4, N-(2-((5-chloro-2-((4-(4-(dimethylamino)piperidin-1-yl)-2-methoxy-5-methylphenyl)amino)pyrimidin-4-yl)amino)-5-methoxyphenyl)methanesulfonamide], for which the GI50 turned out to be 263 nM at Ba/F3 EGFR Wild-type; 30 nM in assay [1]; 132 nM in assay [2]; 38 nM in assay [3]; 91 nM in assay [4]; 31 nM in assay [5].
With `CCc1cc(Nc2ncc(Br)c(Nc3ccc4nccnc4c3N(C)S(C)(=O)=O)n2)c(OC)cc1N1CC2(C1)CN(C(C)C)C2` [Example B29, N-(6-((5-bromo-2-((5-ethyl-4-(6-isopropyl-2,6-diazaspiro[3.3]heptan-2-yl)-2-methoxyphenyl)amino)pyrimidin-4-yl)amino)quinoxalin-5-yl)-N-methylmethanesulfonamide], the GI50 amounted to 317 nM on Ba/F3 EGFR Wild-type; 9 nM in assay [1]; 2 nM in assay [2]; 68 nM in assay [3]; 27 nM in assay [4]; 14 nM in assay [5].
With `COc1cc(N2CC[C@H](N3CCN(C)CC3)[C@H](F)C2)ccc1Nc1ncc(Cl)c(Nc2ccc3nccnc3c2NS(C)(=O)=O)n1` [Example A35, N-(6-((5-chloro-2-((4-((3R,4S)-3-fluoro-4-(4-methylpiperazin-1-yl)piperidin-1-yl)-2-methoxyphenyl)amino)pyrimidin-4-yl)amino)quinoxalin-5-yl)methane sulfonamide], the GI50 came to 576 nM on Ba/F3 EGFR Wild-type; 219 nM in assay [1]; 272 nM in assay [2]; 659 nM in assay [3]; 335 nM in assay [4]; 145 nM in assay [5].
In the case of `COc1cc(N2CCC(N3CCN(C)CC3)CC2)c(C)cc1Nc1ncc(Br)c(Nc2ccc3nccnc3c2NS(C)(=O)=O)n1` [Example A4, N-(6-((5-bromo-2-((2-methoxy-5-methyl-4-(4-(4-methylpiperazin-1-yl)piperidin-1-yl)phenyl)amino)pyrimidin-4-yl)amino)quinoxalin-5-yl)methanesulfonamide], the GI50 at Ba/F3 EGFR Wild-type came out at 249 nM; in assay [1], 3 nM; in assay [2], 1 nM; in assay [3] it was 6 nM; in assay [4] it was 34 nM; in assay [5], 12 nM.
On to `CCCc1cc(Nc2ncc(Cl)c(Nc3ccc(OC)cc3NS(C)(=O)=O)n2)c(OC)cc1N1CCC(N(C)C)CC1` [Example C12, N-(2-((5-chloro-2-((4-(4-(dimethylamino)piperidin-1-yl)-2-methoxy-5-propylphenyl)amino)pyrimidin-4-yl)amino)-5-methoxyphenyl)methanesulfonamide], for which the GI50 at Ba/F3 EGFR Wild-type is 731 nM; in assay [1] it was 8 nM; in assay [2] it was 9 nM; in assay [3], 29 nM; in assay [4] it was 28 nM; in assay [5], 6 nM.
On to `CCc1cc(Nc2ncc(Cl)c(Nc3cccc(OC)c3NS(C)(=O)=O)n2)c(OC)cc1N1CCC(N2CCOCC2)CC1` [Example C20, N-(2-((5-chloro-2-((5-ethyl-2-methoxy-4-(4-morpholinopiperidin-1-yl)phenyl)amino)pyrimidin-4-yl)amino)-6-methoxyphenyl)methanesulfonamide], for which the GI50 on Ba/F3 EGFR Wild-type was 1160 nM; in assay [1] it was 21 nM; in assay [2], 21 nM; in assay [3], 148 nM; in assay [4], 87 nM; in assay [5], 22 nM.
Consider `CCc1cc(Nc2ncc(Cl)c(Nc3ccc4c(c3N(C)S(C)(=O)=O)OCCO4)n2)c(OC)cc1N1CCC(N2CCOCC2)CC1` [Example C30, N-(6-((5-chloro-2-((5-ethyl-2-methoxy-4-(4-morpholinopiperidin-1-yl)phenyl)amino)pyrimidin-4-yl)amino)-2,3-dihydrobenzo[b][1,4]dioxin-5-yl)-N-methylmethanesulfonamide], for which the GI50 came out at 664 nM on Ba/F3 EGFR Wild-type; 10 nM in assay [1]; 13 nM in assay [2]; 35 nM in assay [3]; 38 nM in assay [4]; 6 nM in assay [5].
Regarding `COc1cc(N2CCC(N3CCCC3)CC2)c(C)cc1Nc1ncc(Br)c(Nc2cccc(OC)c2NS(C)(=O)=O)n1` [Example C25, N-(2-((5-bromo-2-((2-methoxy-5-methyl-4-(4-(pyrrolidin-1-yl)piperidin-1-yl)phenyl)amino)pyrimidin-4-yl)amino)-6-methoxyphenyl)methanesulfonamide], the GI50 at Ba/F3 EGFR Wild-type is 707 nM; in assay [1], 6 nM; in assay [2] it was 6 nM; in assay [3] it was 44 nM; in assay [4], 55 nM; in assay [5] it was 18 nM.
